Assay results reported in patent US20110098296A1, “Thiazole And Oxazole Kinase Inhibitors” (priority 2007, published 2011).

Experiments:
EGFR = target: T1, EGFR (Homo sapiens, UniProt P00533); assay: EGFR substrate phosphorylation assay (HTRF); format: biochemical; conditions: Method (A): Enzyme Mix incubated with compound at 20° C. for 1 hr, reaction started by adding Substrate Mix
T1 construct: made in house; host or cells: baculovirus expression system
Method in brief: (§1)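 Baculovirus-expressed kinase (0.8 nM EGFR or 10 nM ErbB2 in enzyme mix) with Peptide C 0.8 μM and ATP 20 μM (substrate-mix levels), MOPS pH 7.5, MnCl2; 90 min, 20 °C, HTRF anti-phosphotyrosine. Method A adds 1 h enzyme–compound preincubation; B none. pIC50, final compound 0.00027–47.6 μM.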

ErbB2 = target: T2, ErbB2 (Homo sapiens, UniProt P04626); assay: ErbB-2 substrate phosphorylation assay (HTRF); format: biochemical; conditions: Method (A): Enzyme Mix incubated with compound at 20° C. for 1 hr, reaction started by adding Substrate Mix
T2 construct: made in house; host or cells: baculovirus expression system
Method in brief: as §1

HN5 tumor cells = assay: Method C: Cell Growth Inhibition Assay (CellTiter-Glo), HN5; format: cell-based; conditions: Homo sapiens, 72 h, 3 days, 4-parameter fit
Method in brief: (§2)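 HT-29 and HN5 were grown in high-glucose DMEM with 10% FBS, SK-MEL-28 in EMEM with nonessential amino acids, sodium pyruvate and 10% FBS, and A375P F11s in RPMI with 10% FBS and sodium pyruvate. Cells (500/well) received 1:3 compound dilutions for 3 days, with CellTiter-Glo readout and 4-parameter IC50.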

BT474 tumor cells = assay: Method C: Cell Growth Inhibition Assay (CellTiter-Glo), BT474; format: cell-based; conditions: Homo sapiens, BT-474, 72 h, 3 days, 4-parameter fit
Colo205 tumor cells = assay: Method C: Cell Growth Inhibition Assay (CellTiter-Glo), Colo205; format: cell-based; conditions: Homo sapiens, COLO 205, 72 h, 3 days, 4-parameter fit
Method in brief: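 Growth inhibition is expressed as the concentration giving 50% inhibition relative to vehicle controls, derived from a 4-parameter fit. Tumor cells plated at 500 per well were exposed for 3 days to compound (0.2% DMSO) before total ATP was quantified by CellTiter-Glo.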

SK-MEL-28 tumor cells = assay: Method C: Cell Growth Inhibition Assay (CellTiter-Glo), SK-MEL-28; format: cell-based; conditions: Homo sapiens, SK-MEL-28, 72 h, 3 days, 4-parameter fit
Method in brief: as §2

A375P F11s tumor cells = assay: Method C: Cell Growth Inhibition Assay (CellTiter-Glo), A375P F11s; format: cell-based; conditions: Homo sapiens, 72 h, 3 days, 4-parameter fit
Protocol: (§3) Human breast tumor cells (BT474) were cultured in RPMI (Mediatech 50-011-PB), containing 10% FBS (JRH Biosciences 12176) and 1% penicillin-streptomycin (Invitrogen 15140). Human head and neck tumor cells (HN5) were cultured in high glucose DMEM (Mediatech 50-013-PB) containing 10% FBS and 1% penicillin-streptomycin. Human colon tumor cells (Colo205) were cultured in RPMI (Mediatech 50-020-PB) containing 10% FBS and 1% penicillin-streptomycin. Human melanoma cancer cells (SK-MEL-28) were cultured in EMEM with nonessential amino acids (Mediatech 50-011-PB) containing 10% FBS, 1% sodium pyruvate (JT Baker 3354-04), and 1% penicillin-streptomycin. Human melanoma cancer cells (A375P F11s) were cultured in RPMI (Mediatech 50-020-PB) containing 10% FBS, 1% sodium pyruvate, and 1% penicillin-streptomycin. Human colon cancer cells (HT-29) were cultured in high glucose DMEM (Mediatech 50-013-PB) containing 10% FBS and 1% penicillin-streptomycin. Human melanoma cancer cells (SK-MEL-3) were cultured in McCoy's 5A (50-025-PB) containing 15% FBS, and 1% penicillin-streptomycin. All cell lines were maintained at 37° C. in a humidified 5% CO2, 95% air incubator. Cells were harvested using trypsin/EDTA (Invitrogen 25200), counted using an haemocytometer, and plated. For 96-well assays (using white full-area NUNC plates cat. #136102), cells were plated in 105 μL at the following densities (cells/well): HN5, 500; Colo205, 500; SK-MEL-28, 500; A375P-F11s, 500; HT-29, 500; SK-MEL-3, 500; and BT474, 3000. For 384-well assays (white full-area NUNC plates, cat. #781080), cells were plated in 48 μL at the following densities (cells/well): HN5, 500; Colo205, 500; SK-MEL-28, 500; A375P-F11s, 500; HT29, 500; SK-MEL-3, 500; and BT474, 2000.
(§4) The next day, compounds were diluted as follow: For 96-well assays, 13.5 μL of compound in DMSO were diluted using nine (9) serial 1:3 dilutions of 4.5 μL in 9 μL of DMSO. Medium (270 μl/well of RPMI with 10% FBS and 1% penicillin-streptomycin) was added to the plates. Aliquots (7 μl) were added to cells in the final assay giving a final DMSO concentration of 0.2%. For 384-well assays, 15 μL of compound in DMSO were diluted using nine (9) serial 1:3 dilutions of 5 μL in 10 μL of DMSO, followed by a further dilution of 5 μL of compound with 95 μL of medium, of which 2 μL were added to cells in the final assay giving a final DMSO concentration of 0.2%. Cells were incubated at 37° C., 5% CO2 for 3 days.
(§5) Total ATP was measured (as a surrogate estimate of cell number) using CellTiter-Glo® reagent (Promega G7571). Briefly, plates were removed from the incubator and allowed to equilibrate to room temperature for 30 minutes. CellTiter-Glo® (25 μL or 55 μL for 384-well or 96-well assays, respectively) reagent was added to each well and plates were shaken on an orbital plate shaker for 2 mins. Plates were incubated without shaking for a further 30 mins and read on an LJL Analyst GT reader in luminometer mode with an integration time of 0.5 seconds per well. Percent inhibition of cell growth was calculated relative to DMSO vehicle-treated control wells. Concentration of compound required to give 50% inhibition of vehicle-treated control cell growth (IC50) was interpolated using a 4-parameter fit for determining IC50 using the following equation: Y=A+((B−A)/(1+((C/X)̂D))) where X=IC50.

HT-29 tumor cells = assay: Method C: Cell Growth Inhibition Assay (CellTiter-Glo), HT-29; format: cell-based; conditions: Homo sapiens, HT-29, 72 h, 3 days, 4-parameter fit
Protocol: as §3, §4, §5

SK-MEL-3 tumor cells = assay: Method C: Cell Growth Inhibition Assay (CellTiter-Glo), SK-MEL-3; format: cell-based; conditions: Homo sapiens, SK-MEL3, 72 h, 3 days, 4-parameter fit
Protocol: as §3, §4, §5

T2 sequence (P04626 23-1255): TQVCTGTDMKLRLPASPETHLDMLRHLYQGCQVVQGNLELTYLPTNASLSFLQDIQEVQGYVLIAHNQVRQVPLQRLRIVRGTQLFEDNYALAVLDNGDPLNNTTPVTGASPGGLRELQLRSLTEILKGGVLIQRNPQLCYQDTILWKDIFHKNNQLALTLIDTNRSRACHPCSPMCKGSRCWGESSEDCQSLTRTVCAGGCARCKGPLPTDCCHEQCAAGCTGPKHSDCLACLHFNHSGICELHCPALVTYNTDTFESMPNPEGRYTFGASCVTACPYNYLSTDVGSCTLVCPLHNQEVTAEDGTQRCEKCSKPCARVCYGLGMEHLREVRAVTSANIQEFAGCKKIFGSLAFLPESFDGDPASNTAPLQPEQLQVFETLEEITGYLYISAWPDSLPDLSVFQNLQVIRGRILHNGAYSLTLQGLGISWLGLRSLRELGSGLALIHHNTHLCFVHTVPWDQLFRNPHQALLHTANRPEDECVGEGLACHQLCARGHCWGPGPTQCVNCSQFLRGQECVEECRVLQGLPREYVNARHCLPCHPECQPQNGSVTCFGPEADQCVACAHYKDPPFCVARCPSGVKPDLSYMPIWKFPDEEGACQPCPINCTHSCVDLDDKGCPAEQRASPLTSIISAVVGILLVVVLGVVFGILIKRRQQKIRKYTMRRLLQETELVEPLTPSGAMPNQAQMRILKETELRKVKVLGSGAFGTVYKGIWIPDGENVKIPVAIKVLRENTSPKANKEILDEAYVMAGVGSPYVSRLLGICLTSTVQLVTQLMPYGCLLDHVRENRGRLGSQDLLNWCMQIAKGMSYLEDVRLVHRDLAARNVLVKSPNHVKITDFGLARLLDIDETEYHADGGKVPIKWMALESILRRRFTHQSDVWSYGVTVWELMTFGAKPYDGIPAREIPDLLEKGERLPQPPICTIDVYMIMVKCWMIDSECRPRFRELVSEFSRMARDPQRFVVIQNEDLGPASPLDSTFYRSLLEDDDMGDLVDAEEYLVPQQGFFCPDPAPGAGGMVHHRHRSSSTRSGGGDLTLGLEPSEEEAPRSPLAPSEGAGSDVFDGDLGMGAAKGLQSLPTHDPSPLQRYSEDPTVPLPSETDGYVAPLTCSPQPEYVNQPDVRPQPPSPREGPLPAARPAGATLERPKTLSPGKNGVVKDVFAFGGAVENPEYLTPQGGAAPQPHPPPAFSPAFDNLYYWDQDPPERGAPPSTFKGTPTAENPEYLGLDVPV
T1 sequence (P00533 25-1210): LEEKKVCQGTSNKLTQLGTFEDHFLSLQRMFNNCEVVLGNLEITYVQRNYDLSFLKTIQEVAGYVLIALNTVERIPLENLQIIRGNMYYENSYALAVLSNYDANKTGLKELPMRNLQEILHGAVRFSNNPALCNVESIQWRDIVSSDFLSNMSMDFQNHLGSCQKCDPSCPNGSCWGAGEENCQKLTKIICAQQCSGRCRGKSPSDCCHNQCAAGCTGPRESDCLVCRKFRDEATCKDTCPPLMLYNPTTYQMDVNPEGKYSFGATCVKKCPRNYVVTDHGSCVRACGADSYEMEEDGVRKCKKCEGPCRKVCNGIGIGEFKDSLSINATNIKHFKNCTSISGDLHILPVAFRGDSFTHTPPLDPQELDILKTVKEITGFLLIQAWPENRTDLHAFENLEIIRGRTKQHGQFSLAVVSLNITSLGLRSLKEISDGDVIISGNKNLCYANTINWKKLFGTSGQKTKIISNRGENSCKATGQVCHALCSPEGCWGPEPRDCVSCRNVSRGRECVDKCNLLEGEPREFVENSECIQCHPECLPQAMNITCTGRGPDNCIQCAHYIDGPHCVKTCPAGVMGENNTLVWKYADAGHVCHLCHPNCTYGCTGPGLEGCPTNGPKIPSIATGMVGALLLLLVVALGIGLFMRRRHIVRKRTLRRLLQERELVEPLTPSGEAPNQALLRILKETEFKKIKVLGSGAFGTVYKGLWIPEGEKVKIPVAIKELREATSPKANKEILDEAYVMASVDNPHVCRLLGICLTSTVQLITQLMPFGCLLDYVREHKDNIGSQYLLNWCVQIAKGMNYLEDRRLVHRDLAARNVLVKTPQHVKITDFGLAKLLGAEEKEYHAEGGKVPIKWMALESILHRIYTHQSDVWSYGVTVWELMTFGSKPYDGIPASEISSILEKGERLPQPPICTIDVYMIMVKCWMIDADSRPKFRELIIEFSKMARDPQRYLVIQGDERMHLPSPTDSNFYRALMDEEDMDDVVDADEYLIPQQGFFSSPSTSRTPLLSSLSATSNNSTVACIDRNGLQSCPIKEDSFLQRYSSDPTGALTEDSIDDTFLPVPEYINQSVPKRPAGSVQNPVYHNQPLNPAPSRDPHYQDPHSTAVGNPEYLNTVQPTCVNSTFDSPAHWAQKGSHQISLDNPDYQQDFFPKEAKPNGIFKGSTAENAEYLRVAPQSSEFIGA

Row | SMILES | IC50 (EGFR) | IC50 (ErbB2) | IC50 (HN5 tumor cells) | IC50 (BT474 tumor cells) | IC50 (Colo205 tumor cells) | IC50 (SK-MEL-28 tumor cells) | IC50 (A375P F11s tumor cells) | IC50 (HT-29 tumor cells) | IC50 (SK-MEL-3 tumor cells)
1 | CN(C)CCOc1ccc(Nc2nccc(-c3sc(N4CCN(C)CC4)nc3-c3cccc(NC(=O)c4c(F)cccc4F)c3)n2)cc1Cl [Example 45, N-{3-[5-{2-[(3-Chloro-4-{[2-(dimethylamino)ethyl]oxy}phenyl)amino]-4-pyrimidinyl}-2-(4-methyl-1-piperazinyl)-1,3-thiazol-4-yl]phenyl}-2,6-difluorobenzamide] | < 0.1 µM | < 0.1 µM | 0.1 to 1 µM | 0.1 to 1 µM | 0.1 to 1 µM | > 1 µM | 0.1 to 1 µM | 0.1 to 1 µM | 0.1 to 1 µM
2 | CN(C)CCOc1ccc(Nc2nccc(-c3sc(N)nc3-c3cccc(NC(=O)c4cc(F)ccc4F)c3)n2)cc1Cl [Example 56] | < 0.1 µM | < 0.1 µM | < 0.1 µM | < 0.1 µM | 0.1 to 1 µM | > 1 µM | 0.1 to 1 µM | 0.1 to 1 µM | > 1 µM
3 | CN(C)CCOc1ccc(Nc2nccc(-c3sc(N)nc3-c3ccc(F)c(NC(=O)c4c(F)cccc4F)c3)n2)cc1Cl [Example 67] | < 0.1 µM | < 0.1 µM | < 0.1 µM | < 0.1 µM | < 0.1 µM | 0.1 to 1 µM | 0.1 to 1 µM | 0.1 to 1 µM | 0.1 to 1 µM
4 | CN(C)CCOc1ccc(Nc2nccc(-c3sc(N)nc3-c3cc(NC(=O)c4c(F)cccc4F)ccc3F)n2)cc1Cl [Example 68, N-[3-(2-Amino-5-{2-[(3-chloro-4-{[2-(dimethylamino)ethyl]oxy}phenyl)amino]-4-pyrimidinyl}-1,3-thiazol-4-yl)-4-fluorophenyl]-2,6-difluorobenzamide] | < 0.1 µM | < 0.1 µM | < 0.1 µM | < 0.1 µM | 0.1 to 1 µM | 0.1 to 1 µM | 0.1 to 1 µM | 0.1 to 1 µM | 0.1 to 1 µM
5 | CN(C)CCOc1ccc(Nc2nccc(-c3sc(N4CCCCC4)nc3-c3cccc(NC(=O)c4c(F)cccc4F)c3)n2)cc1Cl [Example 72, N-{3-[5-{2-[(3-Chloro-4-{[2-(dimethylamino)ethyl]oxy}phenyl)amino]-4-pyrimidinyl}-2-(1-piperidinyl)-1,3-thiazol-4-yl]phenyl}-2,6-difluorobenzamide] | < 0.1 µM | < 0.1 µM | 0.1 to 1 µM | > 1 µM | > 1 µM | > 1 µM | > 1 µM | 0.1 to 1 µM | > 1 µM
6 | CN(C)CCOc1ccc(Nc2nccc(-c3sc(N)nc3-c3cccc(C(=O)Nc4c(F)cccc4F)c3)n2)cc1Cl [Example 75, 3-(2-Amino-5-{2-[(3-chloro-4-{[2-(dimethylamino)ethyl]oxy}phenyl)amino]-4-pyrimidinyl}-1,3-thiazol-4-yl)-N-(2,6-difluorophenyl)benzamide] | < 0.1 µM | < 0.1 µM | 0.1 to 1 µM | < 0.1 µM | 0.1 to 1 µM | > 1 µM | 0.1 to 1 µM | 0.1 to 1 µM | 0.1 to 1 µM
7 | CN(C)CCOc1cccc(Nc2nccc(-c3scnc3-c3cccc(NC(=O)c4c(F)cccc4F)c3)n2)c1 [Example 79, N-[3-(5-{2-[(3-{[2-(Dimethylamino)ethyl]oxy}phenyl)amino]-4-pyrimidinyl}-1,3-thiazol-4-yl)phenyl]-2,6-difluorobenzamide-formic acid] | < 0.1 µM | < 0.1 µM | < 0.1 µM | < 0.1 µM | 0.1 to 1 µM | > 1 µM | 0.1 to 1 µM | 0.1 to 1 µM | > 1 µM
8 | CS(=O)(=O)CCN1CCN(c2ccc(Nc3nccc(-c4scnc4-c4cccc(NC(=O)c5c(F)cccc5F)c4)n3)cc2F)CC1 [Example 80, 2,6-Difluoro-N-[3-(5-{2-[(3-fluoro-4-{4-[2-(methylsulfonyl)ethyl]-1-piperazinyl}phenyl)amino]-4-pyrimidinyl}-1,3-thiazol-4-yl)phenyl]benzamide] | < 0.1 µM | < 0.1 µM | < 0.1 µM | < 0.1 µM | > 1 µM | 0.1 to 1 µM | 0.1 to 1 µM | 0.1 to 1 µM | 0.1 to 1 µM

Second part, the compound after the results:

Row | IC50 (EGFR) | IC50 (ErbB2) | IC50 (HN5 tumor cells) | IC50 (BT474 tumor cells) | IC50 (Colo205 tumor cells) | IC50 (SK-MEL-28 tumor cells) | IC50 (A375P F11s tumor cells) | IC50 (HT-29 tumor cells) | IC50 (SK-MEL-3 tumor cells) | SMILES
9 | < 0.1 µM | < 0.1 µM | 0.1 to 1 µM | < 0.1 µM | 0.1 to 1 µM | > 1 µM | 0.1 to 1 µM | 0.1 to 1 µM | 0.1 to 1 µM | CN(C)c1nc(-c2cccc(NC(=O)c3c(F)cccc3F)c2)c(-c2ccnc(Nc3cccc(CN4CCCC4)c3)n2)s1 [Example 39, N-{3-[2-(Dimethylamino)-5-(2-{[3-(1-pyrrolidinylmethyl)phenyl]amino}-4-pyrimidinyl)-1,3-thiazol-4-yl]phenyl}-2,6-difluorobenzamide]
10 | < 0.1 µM | < 0.1 µM | 0.1 to 1 µM | 0.1 to 1 µM | 0.1 to 1 µM | 0.1 to 1 µM | 0.1 to 1 µM | 0.1 to 1 µM | 0.1 to 1 µM | CN(C)c1nc(-c2cccc(NC(=O)c3c(F)cccc3F)c2)c(-c2ccnc(Nc3ccc(OCCN4CCCC4)c(Cl)c3)n2)s1 [Example 40, N-{3-[5-{2-[(3-Chloro-4-{[2-(1-pyrrolidinyl)ethyl]oxy}phenyl)amino]-4-pyrimidinyl}-2-(dimethylamino)-1,3-thiazol-4-yl]phenyl}-2,6-difluorobenzamide]
11 | < 0.1 µM | < 0.1 µM | 0.1 to 1 µM | 0.1 to 1 µM | 0.1 to 1 µM | 0.1 to 1 µM | > 1 µM | 0.1 to 1 µM | > 1 µM | CN1CCc2ccc(Nc3nccc(-c4sc(N5CCCC5)nc4-c4cccc(NC(=O)c5c(F)cccc5F)c4)n3)cc2C1 [Example 44, 2,6-Difluoro-N-{3-[5-{2-[(2-methyl-1,2,3,4-tetrahydro-7-isoquinolinyl)amino]-4-pyrimidinyl}-2-(1-pyrrolidinyl)-1,3-thiazol-4-yl]phenyl}benzamide]
